Assays:
[1] = tested on: c-kit21up (c-kit G-quadruplex DNA) (DNA, G4) CGGGCGGGCGCGAGGGAGGGG; test: ligand fluorescence titration; conditions: 100 mM KCl, 10 mM potassium phosphate; pH 7.0, 25 °C
[2] = tested on: Pu24T (c-myc G-quadruplex DNA) (DNA, G4) TGAGGGTGGTGAGGGTGGGGAAGG; test: UV melting at 295 nm; conditions: 100 mM KCl, 10 mM potassium phosphate; pH 7.0; D/N = 2.0; Tm 70.0 to 80.0 °C
[3] = tested on: Pu24T (c-myc G-quadruplex DNA) (DNA, G4) TGAGGGTGGTGAGGGTGGGGAAGG; test: NMR solution structure (NOESY, restrained MD); conditions: 298 K; D/N = 2.0; stacks at 5' and 3' G-tetrads
[4] = tested on: Tel7, d-(T2AG3T)4 (DNA, G4) TTAGGGT; test: ligand fluorescence titration; conditions: 70 mM Na+; 25 °C
[5] = tested on: Pu24T (c-myc G-quadruplex DNA) (DNA, G4) TGAGGGTGGTGAGGGTGGGGAAGG; test: ITC; conditions: 100 mM KCl, 10 mM potassium phosphate; pH 7.0, 25 °C; site 1 of 2
[6] = tested on: Pu24T (c-myc G-quadruplex DNA) (DNA, G4) TGAGGGTGGTGAGGGTGGGGAAGG; test: ligand fluorescence titration; conditions: 100 mM KCl, 10 mM potassium phosphate; pH 7.0, 25 °C; site 1 of 2

Kd1 [1] | ΔTm [2] | Kd1 [4] | K1 [5] | Kd1 [6] | Structure (SMILES) | binding [3]
 |  |  | 1.65×10^5 ± 0 M^-1 | 1.4 µM | O=c1c(O)c(-c2cc(O)c(O)c(O)c2)oc2cc(O)cc(O)c12 | 
 |  |  |  | 1.3 µM | O=c1c(O)c(-c2ccc(O)cc2)oc2cc(O)cc(O)c12 | 
 |  |  | 1.10×10^4 ± 7.75 M^-1 | 88.8 µM | O=c1c(-c2ccc(O)cc2)coc2c([C@@H]3O[C@H](CO)[C@@H](O)[C@H](O)[C@H]3O)c(O)ccc12 | 
 |  |  |  | 1.5 µM | O=c1cc(-c2ccc(O)c(O)c2)oc2cc(O)cc(O)c12 | 
 |  |  | 7.23 × 10^5 ± 8.60 M-1 | 17.1 µM | C[C@@H]1O[C@@H](OC[C@H]2O[C@@H](Oc3c(-c4ccc(O)c(O)c4)oc4cc(O)cc(O)c4c3=O)[C@H](O)[C@@H](O)[C@@H]2O)[C@H](O)[C@H](O)[C@H]1O | 

Further lines, the molecule ahead of its results:

Structure (SMILES) | Kd1 [1] | ΔTm [2] | Kd1 [4] | K1 [5] | Kd1 [6] | binding [3]
O=c1c(O)c(-c2ccc(O)c(O)c2)oc2cc(O)cc(O)c12 | 1.12 µM | 10 °C | 2.13 µM | 1.57 × 10^7 ± 2.14 M-1 |  | yes
COc1ccc([C@@H]2CC(=O)c3c(O)cc(O[C@@H]4O[C@H](CO[C@@H]5O[C@@H](C)[C@H](O)[C@@H](O)[C@H]5O)[C@@H](O)[C@H](O)[C@H]4O)cc3O2)cc1O |  |  |  | 7.35×10^5 ± 1.06 M^-1 | 1 µM | 
O=c1c(-c2ccc(O)cc2)coc2cc(O)ccc12 |  |  |  | 3.34×10^5 ± 1.50 M^-1 | 47 µM | 

From article PMC5472631 (2017)
